Data published in patent EP0240392A1, “Compounds of the cyclophosphazene type, process for their preparation and pharmaceutical preparation containing them” (CENTRE NATIONAL DE LA RECHERCHE SCIENTIFIQUE (CNRS), priority 1986, dated 1987).
Marks after values point to notes of the source that are not given here.

Tested on: CARCINOME DU POUMON DE LEWIS
Assay: Antitumour activity on Lewis lung carcinoma implanted i.m. in mice
Type: in vivo, souris C57Bl/6
Settings: 60 mg/kg i.p. x j 1,5,9
Excerpt: Les tests d'activité antitumorale ont été conduits au sein du Screening and Pharmacology Group de l'E.O.R.T.C., implanté à l'Institut Mario Negri de Milan.
Ces essais ont été conduits soit en mono-injection à différentes doses au jour J+1 suivant la greffe de la tumeur, soit en poly-injections chroniques Q1D, soit en protocoles Q4D.

In the case of `O=P1(N(CCCl)CCCl)NCCCO1` (stereo not shown) [CPA, Cyclophosphamide, reference compound], the “Volume de la tumeur (d^2.D/2)cm^3 ± S.E.” value (jour 17) is reported as 0,57±0,16* cm^3, the “Volume de la tumeur (d^2.D/2)cm^3 ± S.E.” value (jour 20) is reported as 1,30±0,17* cm^3 and the “Volume de la tumeur (d^2.D/2)cm^3 ± S.E.” value (jour 24) is reported as 3,03±0,25* cm^3. The “Poids moyen de la tumeur (g ± S.E.)” value (sacrifice jour 25) was 4,14 ± 0,27 g.
